{
  "source": "paper PMC4585333",
  "about": "“Novel Regulator of Acylated Ghrelin, CF801, Reduces Weight Gain, Rebound Feeding after a Fast, and Adiposity in Mice” (Frontiers in Endocrinology, 2015)",
  "type_in_all_cases": "in vivo, male C57BL/6J mice",
  "key": {"plasma acylated ghrelin": {"test_system": "plasma acylated ghrelin", "experiment": "Plasma acylated ghrelin in fasted mice (ELISA)", "procedure": "(§1) In general, male C57BL/6J mice (The Jackson Laboratory, Bar Harbor, ME, USA) weighing 20–25 g were used as experimental subjects. Throughout the duration of the studies, mice were housed under standard laboratory conditions and received ad libitum access to standard laboratory mouse chow and tap water. Lights in the facility were set to go on and off at 12 h intervals with the lights going on at 7:00 a.m. In some experiments, mice also had ad libitum access to a high-fat diet containing 60% caloric content from fat (TD 06414; Harlan Teklad, Indianapolis, IN, USA) in addition to regular chow to measure dietary preferences. All procedures were approved by the Carleton University Animal Care Committee and followed the guidelines of the Canadian Council on Animal Care.\nMice (n = 16) were singly housed and given free access to water and regular chow for a 4-day baseline period. After this, mice were assigned to one of three groups: vehicle (n = 5), CF801 low dose (n = 5; 11 μmol⋅kg^−1 – LD), or CF801 high dose (n = 6; 22 μmol⋅kg^−1 – HD). […] Food intake was then monitored every hour for 4 h to determine the effects of CF801 on rebound feeding. […]\nFollowing the treatment or recovery periods, mice were killed by rapid decapitation and plasma and tissue samples were collected. […] Plasma acylated ghrelin for all animals was measured using an ELISA kit (Millipore)."}, "[1]": {"experiment": "Blood glucose in trunk blood", "conditions": "after 4 days i.p. treatment, fast and refeeding, F(1,15) = 1.105, p > 0.05", "procedure": "Mice (n = 16) were singly housed and given free access to water and regular chow for a 4-day baseline period. After this, mice were assigned to one of three groups: vehicle (n = 5), CF801 low dose (n = 5; 11 μmol⋅kg^−1 – LD), or CF801 high dose (n = 6; 22 μmol⋅kg^−1 – HD). These mice were injected intraperitoneally once a day for 4 days starting at 10:00 a.m. Following 4 days of treatment, animals were tested for rebound feeding after a fast. To do this, we removed the food from each cage 1 h before lights out (6:00 p.m.), and food was returned to the cage the following day 1 h after the last injection. Food intake was then monitored every hour for 4 h to determine the effects of CF801 on rebound feeding. Animals were then sacrificed by rapid decapitation to collect trunk blood and other tissues. Two samples were lost during sample collection, so the number of samples used to measure acylated ghrelin was reduced to n = 14.\nFollowing the treatment or recovery periods, mice were killed by rapid decapitation and plasma and tissue samples were collected. To measure glucose levels, glucose strips attached to a Contour glucose meter (Bayer Corp., Pittsburgh, PA, USA) were dipped in trunk blood collected before being centrifuged. […] Plasma acylated ghrelin for all animals was measured using an ELISA kit (Millipore)."}, "Metabolic efficiency": {"experiment": "Metabolic efficiency", "conditions": "treatment period", "procedure": "(§2) A second cohort of mice (n = 30) was acclimated to the laboratory conditions for 1 week prior to the onset of the experiment. Mice were housed individually and their body weight and food intake was recorded daily for a baseline period of 10 days. Given that ghrelin augments the intake of preferred diets ([28]), all mice received ad libitum access to a high-fat diet (60% of calories coming from fat), in addition to regular chow, to determine if CF801 altered dietary preference. Both chow and high-fat diet pellets were provided daily to mice ad libitum in pre-weighed amounts. Mice were then assigned to four different groups: non-injected control (NIC; n = 7), vehicle (0.9% saline) (VEH; n = 7), low-dose CF801 (11 μmol⋅kg^−1 – LD; n = 8) and high-dose CF801 (22 μmol⋅kg^−1 – HD; n = 8). Each day at 09:00 hours, mice were weighed and their food intake (both chow and high-fat diet) was recorded. After this, mice received an intraperitoneal injection of either CF801 or saline (except for the non-injected controls). Following the 13-day treatment period, half the animals in each group were sacrificed, while the remaining mice were allowed to recover from treatment. […] At this point, the remaining mice were sacrificed. Carcasses from all animals were frozen and stored at −80°C until they were scanned for body composition analyses. Immediately prior to analysis, all carcasses were thawed to room temperature and weighed in order to obtain measures relative to total carcass mass. EchoMRI carcass analyses were performed at Health Canada, Nutrition Research Division facilities using the EchoMRI-1100 (System ID EF-020) scanner. Each carcass was analyzed separately and measurements of total fat mass, total lean mass, and total water weight were obtained for each mouse.\nMetabolic efficiency, defined as the amount of weight gained per calorie of energy consumed during a given time period, was calculated for each mouse during the baseline and treatment period. There were no differences in metabolic efficiency between any groups during the baseline period (data not shown)."}, "[2]": {"experiment": "Food intake and dietary preference (chow and high-fat diet)", "procedure": "as §1, §2"}, "[3]": {"experiment": "Indirect calorimetry, respiratory exchange ratio", "conditions": "22 μmol⋅kg^−1 i.p. daily for a week, 4-h period following injection, n = 5 vs saline n = 5; t(5) = 3.457, p < 0.05", "procedure": "Mice (n = 10) were housed individually and their body weight and food intake was recorded daily for a baseline period of 10 days. As in Experiment 1, all mice had ad libitum access to regular lab chow and a high-fat diet (60% of calories coming from fat). At the end of the baseline, mice were housed in metabolic chambers (TSE Systems) for 48 h to examine metabolic rate using indirect calorimetry prior to the onset of the drug treatment. While indirect calorimetry measures were obtained throughout the 48-h period, we only analyzed measurements in the last 24 h to allow the animals to adjust to the chambers. Mice were then assigned to one of two groups: vehicle (0.9% saline) (VEH; n = 5) and CF801 (22 μmol⋅kg^−1; n = 5). Each day at 09:00 hours, mice were weighed and their food intake (both chow and high-fat diet) was recorded, and then received an intraperitoneal injection of either CF801 or saline. Drug treatment continued for 16 days. On the eighth day, mice were again placed in the metabolic chambers for 48 h while still being monitored and injected with their respective treatment to determine differences in metabolism produced by the drug.\nGiven that treatment with CF801 decreased weight gain without altering caloric intake, we reasoned that perhaps CF801 was exerting its effects at the metabolic level. […]"}},
  "note": "Entries after “also recorded” stand apart in the source; their conditions may differ.",
  "data": [
    {"sequence": "GSAFLSPEHQRK KRRQRRR-NH2 [CF801]", "values": [
      {"measurement": "plasma acylated ghrelin concentration, high dose", "setting": "plasma acylated ghrelin; 22 μmol⋅kg^−1 i.p. once daily for 4 days, after fast, vs vehicle, p < 0.05 Fisher LSD", "value": "statistically significant; also recorded: reduced levels of plasma acylated ghrelin"},
      {"measurement": "plasma acylated ghrelin concentration, dose dependence", "setting": "plasma acylated ghrelin; i.p. once daily for 4 days, 11 and 22 μmol⋅kg^−1, F(2,24) = 2.90, p < 0.05, partial eta^2 = 0.22", "value": "dose-dependent decrease in plasma ghrelin concentrations"},
      {"measurement": "blood glucose concentrations", "setting": "[1]", "value": "No significant differences"},
      {"measurement": "metabolic efficiency, low dose vs NIC and VEH", "setting": "Metabolic efficiency; 11 μmol⋅kg^−1 i.p., p < 0.05, overall F(1,29) = 9.086, partial eta^2 = 0.522", "value": "significantly lower metabolic efficiencies"},
      {"measurement": "metabolic efficiency, high dose vs NIC and VEH", "setting": "Metabolic efficiency; 22 μmol⋅kg^−1 i.p., p < 0.05, overall F(1,29) = 9.086, partial eta^2 = 0.522", "value": "significantly lower metabolic efficiencies"},
      {"measurement": "metabolic efficiency, high dose vs low dose", "setting": "Metabolic efficiency; 22 vs 11 μmol⋅kg^−1 i.p., p > 0.05", "value": "no different than animals receiving LD CF801"},
      {"measurement": "high-fat diet intake, low dose vs NIC and VEH", "setting": "[2]; 11 μmol⋅kg^−1 i.p. daily, 13 days, p's < 0.05", "value": "significantly less high-fat diet"},
      {"measurement": "regular chow consumption, high dose", "setting": "[2]; 22 μmol⋅kg^−1 i.p. daily, 13 days, vs every other group, F(3,28) = 5.305, p < 0.05, partial eta^2 = 0.41", "value": "significantly more regular chow"},
      {"measurement": "high-fat diet intake, high dose vs NIC and VEH", "setting": "[2]; 22 μmol⋅kg^−1 i.p. daily, 13 days, p's < 0.05", "value": "significantly less high-fat diet"},
      {"measurement": "caloric intake, recovery period", "setting": "[2]; 8-day recovery without injection, F(1,29) = 2.093, p > 0.05", "value": "no differences between any groups"},
      {"measurement": "caloric intake, treatment period", "setting": "[2]; 13-day i.p. treatment, 11 and 22 μmol⋅kg^−1, chow plus high-fat diet, F(1,29) = 0.783, p > 0.05", "value": "no differences between any groups"},
      {"measurement": "high-fat diet intake, dose dependence", "setting": "[2]; 13-day i.p. treatment, F(3,29) = 6.788, p < 0.05, partial eta^2 = 0.45", "value": "overall significant dose-dependent decrease in the intake of the high-fat diet"},
      {"measurement": "high-fat diet intake, high dose vs low dose", "setting": "[2]; 22 vs 11 μmol⋅kg^−1 i.p. daily, 13 days", "value": "tended to consume less than animals receiving LD CF801 (p = 0.073)"},
      {"measurement": "caloric intake at end of treatment period", "setting": "[2]; once CF801 injections stop", "value": "small spike in caloric intake"},
      {"measurement": "respiratory exchange ratio (RER)", "setting": "[3]", "value": "significant decrease in RER"}
    ]}
  ]
}
